Reference: ChEMBL document CHEMBL3822355, “Synthesis and evaluation of substituted 4-(N-benzylamino)cinnamate esters as potential anti-cancer agents and HIV-1 integrase inhibitors” (Bioorg Med Chem Lett, 2016)

What was measured:
HeLa = experiment: Anti-cancer activity against human HeLa cells assessed as reduction in cell viability after 72 hrs by WST-1 assay; format: functional, cell-based
MDA-MB-231 = experiment: Anti-cancer activity against human MDA-MB-231 cells assessed as reduction in cell viability after 72 hrs by WST-1 assay; format: functional, cell-based; conditions: MDA-MB-231, 72 h
[1] = Cytotoxicity against HEK293 cells assessed as cell viability at 100 uM after 48 hrs by resazurin assay; format: cell-based; conditions: human, read-out: Activity

| SMILES | IC50 (HeLa) [µM] | IC50 (MDA-MB-231) [µM] | viability at 48 h, 100 µM [1] [%] |
| --- | --- | --- | --- |
| COC(=O)/C=C/c1ccc(NCc2cc([N+](=O)[O-])ccc2O)cc1 | 16 | 17.4 | 108 |
| COC(=O)/C=C/c1ccc(NCc2cc(Br)cc(Br)c2O)cc1 | 35.4 | 11.5 | 114 |
| COC(=O)/C=C/c1ccc(NCc2cc(Br)ccc2O)cc1 | 7.82 | 109 | 98.1 |
| COC(=O)/C=C/c1ccc(NCc2cc(Cl)cc(Cl)c2O)cc1 | 25.9 | 9.61 | 107 |
| COC(=O)/C=C/c1ccc(NCc2cc(Cl)ccc2O)cc1 | 8.56 | 86.4 | 92.4 |
| COC(=O)/C=C/c1ccc(NCc2ccc(O)c(O)c2)cc1 | 78.1 | 36.6 | 114 |
| COC(=O)/C=C/c1ccc(NCc2cccc(O)c2O)cc1 | 68.2 | 32.6 | 82.3 |

These reach a lower IC50 (HeLa). Values come first.

| IC50 (HeLa) [µM] | IC50 (MDA-MB-231) [µM] | SMILES | viability at 48 h, 100 µM [1] [%] |
| --- | --- | --- | --- |
| 3.04 | 73.7 | COC(=O)/C=C/c1ccc(NCc2cccc(OC)c2O)cc1 | 114 |
| 7.17 | 31.7 | COC(=O)/C=C/c1ccc(NCc2ccccc2O)cc1 | 94.4 |
| 0.0199 |  | CC(=O)O[C@H]1C(=O)[C@@]2(C)[C@H]([C@H](OC(=O)c3ccccc3)[C@]3(O)C[C@H](OC(=O)[C@H](O)[C@@H](NC(=O)c4ccccc4)c4ccccc4)C(C)=C1C3(C)C)[C@]1(OC(C)=O)CO[C@@H]1C[C@@H]2O [PACLITAXEL] |  |
